Assay results reported in US8877752B2, “4(1H)-quinolones having antimalarial activity with reduced chemical resistance” (University of South Florida, priority 2011, dated 2014).
Like-named read-outs stand apart in the source and are kept apart here.

Legend:
[1] = system: P. falciparum clone W2/Indochina (chloroquine- and pyrimethamine-resistant); experiment: in vitro antimalarial activity against W2 (SYBR Green I); assay type: cell-based; details: for antimalarial activity against W2 (in words): comparison; for EC50: Plasmodium falciparum, P. falciparum W2, 72 hrs incubation; for less active against W2 in comparison to 17: relative to reference compound 17
Description: (§1) All synthesized quinolones were tested as described in Cross et al., (2010) J. Med. Chem. 53, 7076-7094 and Reid et al., (2011) Bioorg.
(§2) Parasite Culturing: P. falciparum clone W2/Indochina and TM90C2B/Thailand were grown in continuous culture using RPMI 1640 media containing 10% heat-inactivated type A+ human plasma, sodium bicarbonate (2.4 g/L), HEPES (5.94 g/L) and 4% washed human type A+ erythrocytes. Cultures were gassed with a 90% nitrogen, 5% oxygen and 5% carbon dioxide mixture followed by incubation at 37° C.
(§3) Assay Preparation: Test compounds at 5 mg/mL in DMSO were diluted at least 1:400 and then serially diluted in duplicate over 11 concentrations. P. falciparum cultures with greater than 70% ring stage parasites were diluted to 0.5-0.7% parasitemia and 1.5% hematocrit in RPMI 1640 media. In 96-well plates a volume of 90 μl/well of parasitized erythrocytes was added on top of 10 μL/well of the test compound. […] A Beckman Coulter Biomek 3000 was used to dispense test compounds, control drugs and parasitized erythrocytes into the microtiter plates. Positive and negative controls were included in each plate. […] Assay plates were placed into a plastic gassing chamber and equilibrated with 90% nitrogen, 5% oxygen and 5% carbon dioxide mixture then incubated at 37° C. for 72 hrs. The assay plates were then frozen at −80° C. until later processed for parasite growth determinations.
(§4) SYBR Green I Processing: Assay plates were removed from −80° C. storage and allowed to thaw at room temperature. Using the Beckman Biomek 3000, 100 μL was transferred from the assay plates into 96-well black assay plates. Next, 100 μl of SYBR green I (Invitrogen) in 2× lysis buffer (0.2 μl SYBR green I/mL of 2× lysis buffer (0.008% saponin, 0.08% Triton X-100, 20 mM Tris and 5 mM EDTA)) was dispensed into each well of the 96-well black assay plate using the Beckman Coulter Biomek 3000. Upon addition of SYBR green I the microtiter plates were incubated for 1 hrs. in the dark. Relative Fluorescence units (RFU) were read using a Molecular Devices Spectramax microplate reader.
(§5) Data Analysis: Data analysis was performed using a custom database manager (Dataspects, Inc). Nonlinear regression analysis was used to calculate EC50.

[2] = system: P. falciparum TM90-C2B/Thailand (chloroquine-, mefloquine-, pyrimethamine-, and atovaquone-resistant); experiment: in vitro antimalarial activity against TM90-C2B (SYBR Green I); assay type: cell-based; details: for antimalarial activity against TM90-C2B (in words): comparison; for EC50: Plasmodium falciparum, read-out: EC50 against TM90-C2B; for resistance index RI=EC50(TM90-C2B)/EC50(W2): RI 0.3-3.0 considered acceptable; for less potent against TM90-C2B than against W2: W2 versus TM90-C2B; for more potent against TM90-C2B compared to 27: relative to compound 27
Description: as §1, §2, §3, §4, §5

P. cynomolgi sporozoites = details: treated 5 to 7 consecutive days, cited from earlier work
[3] = P. falciparum TM90-C2B, 72 hrs incubation

CCc1c(C)[nH]c2cc(OCCOc3ccccc3)c(Cl)cc2c1=O [Compound 17, 6-chloro-3-ethyl-2-methyl-7-(2-phenoxy-ethoxy)-1H-quinolin-4-one]
antimalarial activity against W2 (in words) [1]: slightly reduced activities | antimalarial activity against TM90-C2B (in words) [2]: unaffected or slightly improved

CCCCc1cc2c(=O)c(-c3ccc(OC(F)(F)F)cc3)c(C)[nH]c2cc1OCCOc1ccccc1 [Compound 35, 6-butyl-2-methyl-7-(2-phenoxyethoxy)-3-(4-(trifluoromethoxy)phenyl)quinolin-4(1H)-one]
EC50 [1]: 27.9 nM | EC50 [2, 3]: 31 nM | resistance index RI=EC50(TM90-C2B)/EC50(W2) [2]: 1.1

CCc1c(C)[nH]c2cc(OCCOc3ccccc3)c(Br)cc2c1=O [Compound 25, 6-bromo-3-ethyl-2-methyl-7-(2-phenoxy-ethoxy)-1H-quinolin-4-one]
antimalarial activity against W2 (in words) [1]: slightly reduced activities | antimalarial activity against TM90-C2B (in words) [2]: unaffected or slightly improved

CCCCc1cc2c(=O)c(-c3cccc(Oc4ccc(F)cc4)c3)c(C)[nH]c2cc1OCCOc1ccccc1 [Compound 36, 6-butyl-3-(3-(4-fluorophenoxy)phenyl)-2-methyl-7-(2-phenoxyethoxy)quinolin-4(1H)-one]
antimalarial activity against W2 (in words) [1]: inactive | antimalarial activity against TM90-C2B (in words) [2]: inactive

CCc1c(C)[nH]c2cc(OCCN(C)C)c(Cl)cc2c1=O [Compound 24, 6-chloro-7-(2-dimethylamino-ethoxy)-3-ethyl-2-methyl-1H-quinolin-4-one]
melting point: 227 to 230 °C

CCCCc1cc2c(=O)c(-c3ccccc3)c(C)[nH]c2cc1OCCOc1ccccc1 [Compound 31, 6-butyl-2-methyl-7-(2-phenoxyethoxy)-3-phenylquinolin-4(1H)-one]
EC50 [2, 3]: 764 nM

CCCCc1cc2c(=O)c(-c3ccncc3)c(C)[nH]c2cc1OCCOc1ccccc1 [Compound 32, 6-butyl-2-methyl-7-(2-phenoxyethoxy)-3-(pyridin-4-yl)quinolin-4(1H)-one]
antimalarial activity against W2 (in words) [1]: moderate activity in low micromolar or high nanomolar range | antimalarial activity against TM90-C2B (in words) [2]: moderate activity in low micromolar or high nanomolar range

CCc1c(C)[nH]c2cc(OCCOc3ccccc3)ccc2c1=O [Compound 27, 3-ethyl-2-methyl-7-(2-phenoxyethoxy)quinolin-4(1H)-one]
EC50 [1]: 104 nM | EC50 [2, 3]: 71.3 nM

CCc1c(C)[nH]c2cc(OCCN3CCOCC3)c(Cl)cc2c1=O [Compound 23, 6-chloro-3-ethyl-2-methyl-7-(2-morpholin-4-yl-ethoxy)-1H-quinolin-4-one]
melting point: 270 to 271 °C

CCCCc1cc2c(=O)c(-c3ccc(COc4ccc(OC(F)(F)F)cc4)cc3)c(C)[nH]c2cc1OCCOc1ccccc1 [Compound 37, 6-butyl-2-methyl-7-(2-phenoxyethoxy)-3-(4-((4-(trifluoromethoxy)phenoxy)methyl)phenyl) quinolin-4(1H)-one]
antimalarial activity against W2 (in words) [1]: inactive | antimalarial activity against TM90-C2B (in words) [2]: inactive

CCc1c(C)[nH]c2cc(OCCCN3CCN(c4ccccc4)CC3)c(Cl)cc2c1=O [Compound 26, 6-chloro-3-ethyl-2-methyl-7-[3-(4-phenyl-piperazin-1-yl)-propoxy]-1H-quinolin-4-one]
less active against W2 in comparison to 17 [1]: approximately 4 fold

CCCCc1cc2c(=O)c(-c3cccnc3)c(C)[nH]c2cc1OCCOc1ccccc1 [Compound 33, 6-butyl-2-methyl-7-(2-phenoxyethoxy)-3-(pyridin-3-yl)quinolin-4(1H)-one]
antimalarial activity against W2 (in words) [1]: moderate activity in low micromolar or high nanomolar range | antimalarial activity against TM90-C2B (in words) [2]: moderate activity in low micromolar or high nanomolar range

CCCCc1cc2c(=O)c(-c3c(C)noc3C)c(C)[nH]c2cc1OCCOc1ccccc1 [Compound 43, 6-butyl-3-(3,5-dimethylisoxazol-4-yl)-2-methyl-7-(2-phenoxyethoxy)quinolin-4(1H)-one]
EC50 [1]: 27 nM | resistance index RI=EC50(TM90-C2B)/EC50(W2) [2]: pharmaceutically acceptable | less potent against TM90-C2B than against W2 [2]: approximately 5

O=C1C(O)=C([C@H]2CC[C@H](c3ccc(Cl)cc3)CC2)C(=O)c2ccccc21 [ATO, atovaquone, reference compound]
EC50 [1]: 0.53 nM | EC50 [2, 3]: > 170 nM

CCc1c(C)[nH]c2cc(OCOC)c(Cl)cc2c1=O [Compound 20, 6-chloro-3-ethyl-7-methoxymethoxy-2-methyl-1H-quinoline-4-one]
less active against W2 in comparison to 17 [1]: approximately 4 fold

CCCCc1cc2c(=O)c(C(=O)OC)c(C)[nH]c2cc1OCCOc1ccccc1 [Compound 5, Methyl 6-butyl-2-methyl-4-oxo-7-(2-phenoxyethoxy)-1,4-dihydroquinoline-3-carboxylate, reference compound]
EC50 [1]: 0.05 nM | EC50 [2, 3]: 11.2 nM | resistance index RI=EC50(TM90-C2B)/EC50(W2) [2]: 223 | less potent against TM90-C2B than against W2 [2]: approximately 220 | relapse after 120 days of exposure (P. cynomolgi sporozoites; rhesus monkeys inoculated intravenously with sporozoites): no relapse | curative dose (P. cynomolgi sporozoites; rhesus monkeys): 15 mg/kg

CCc1c(C)[nH]c2cc(OCCOc3ccccc3)c(OC)cc2c1=O [Compound 19]
antimalarial activity against W2 (in words) [1]: less active | more potent against TM90-C2B compared to 27 [2]: 3 fold

CCCCc1cc2c(=O)c(CC)c(C)[nH]c2cc1OCCOc1ccccc1 [Compound 16, 6-butyl-3-ethyl-2-methyl-7-(2-phenoxyethoxy)quinolin-4(1H)-one]
EC50 [1]: 1.92 nM | EC50 [2, 3]: 0.15 nM | resistance index RI=EC50(TM90-C2B)/EC50(W2) [2]: 0.08

CCc1c(C)[nH]c2cc(OCCOc3ccccc3)c(C)cc2c1=O [Compound 18, 3-ethyl-2,6-dimethyl-7-(2-phenoxy-ethoxy)-1H-quiolin-4-one]
antimalarial activity against W2 (in words) [1]: less active | more potent against TM90-C2B compared to 27 [2]: 3 fold

CCCCc1cc2c(=O)c(-c3ccc(C(F)(F)F)cc3F)c(C)[nH]c2cc1OCCOc1ccccc1 [Compound 41, 6-butyl-3-(2-fluoro-4-(trifluoromethyl)phenyl)-2-methyl-7-(2-phenoxyethoxy)quinolin-4(1H)-one]
resistance index RI=EC50(TM90-C2B)/EC50(W2) [2]: pharmaceutically acceptable

C[C@H]1[C@@H](O)O[C@@H]2O[C@@]3(C)CC[C@H]4[C@H](C)CC[C@@H]1[C@@]24OO3 [DHA, Dihydroartemisinin, reference compound]
EC50 [1]: 1.8 nM | EC50 ([2]; TM90, 72 h): 0.9 nM
